In US7659245B2, “Macrocylic inhibitors of hepatitis C virus” (Tibotec Pharmaceuticals Ltd, priority 2005, dated 2010) one finds ring closure, yield after HPLC and ring closure, isolated yield data, which are given here for seven compounds.

The conditions of data set [1]: rcm bond, 14-membered ring, Hoveyda-Grubbs II, DCE.
For data set [2] the following is noted: rcm bond, 14-membered ring, DCE.

Like-named read-outs stand apart in the source and are kept apart here.

In turn, `CN1CCCCC=CC2CC2(C(=O)NS(=O)(=O)C2CC2)NC(=O)C2CC(Oc3nc(-c4ccccc4)nc4ccccc34)CC2C1=O` (stereo not shown) had a ring closure, yield after HPLC in data set [1] (from 4-(2-Phenyl-quinazolin-4-yloxy)-cyclopentane-1,2-dicarboxylic acid 1-[(1 cyclo-propanesulfonecarbonyl-2-vinylcyclopropyl)-amide]2-(hex-5-enylmethylamide), 1.72 mM, 150.0 °C) of 29%.

Compound `CN1CCCCC=CC2CC2(C(=O)NS(=O)(=O)C2CC2)NC(=O)C2CC(Oc3nc(N4CCOCC4)nc4ccccc34)CC2C1=O` (stereo not shown) registered a ring closure, yield after HPLC in data set [1] (from 4-(2-Morpholin-4-yl-quinazolin-4-yloxy)-cyclopentane-1,2-dicarboxylic acid 1-[(1-cyclopropanesulfonylaminocarbonyl-2-vinyl-cyclopropyl)-amide]2-(hex-5-enyl-methyl-amide), 1.63 mM, 150.0 °C) of 56%.

Take `CN1CCN(c2nc(OC3CC4C(=O)NC5(C(=O)NS(=O)(=O)C6CC6)CC5C=CCCCCN(C)C(=O)C4C3)c3ccccc3n2)CC1` (stereo not shown): the ring closure, yield after HPLC in data set [1] (from 4-[2-(4-Methyl-piperazin-1-yl)-quinazolin-4-yloxy]-cyclopentane-1,2-dicarboxylic acid 1-[(1-cyclopropanesulfonylaminocarbonyl-2-vinyl-cyclopropyl)amide]2-(hex-5-enyl-methyl-amide), 1.61 mM, 150.0 °C) amounted to 22%.

In the case of `COc1ccc2c(OC3CC4C(=O)NC5(C(=O)O)CC5C=CCCCCN(C)C(=O)N4C3)ncnc2c1C` (stereo not shown), in data set [2] (Hoveyda-Grubbs I, with chain assembly), the ring closure, isolated yield is 8%.

For the compound “17-(7-Methoxy-2-phenyl-quinazolin-4-yloxy-13-methyl-2,14-dioxo-3,13-diazatricyclo[13.3.0.0*4,6*]octadec-7-ene-4-carboxylic acid ethyl ester”, the ring closure, isolated yield in data set [2] (Hoveyda-Grubbs I, 1.1 mM) is 40%.

In the case of “17-[2-(4-Isopropyl-thiazol-2-yl)-7-methoxy-quinazolin-4-yloxy]-13-methyl-2,14-dioxo-3,13-diaza-tricyclo[13.3.0.0*4,6*]octadec-7-ene-4-carboylic acid ethyl ester”, the ring closure, isolated yield in data set [2] (Hoveyda-Grubbs II, 1.45 mM, 90.0 °C) is 46%.

With “Cyclopropanesulfonic acid {17-[2-(4-isopropyl-thiazol-2-yl)-quinazolin-4-yloxy-]-13-methyl-2,14-dioxo-3,13-diaza-tricyclo[13.3.0.0*4,6*]octadec-7-ene-4-carbonyl}-amide”, in data set [1] (1.67 mM, 15.0 °C), the ring closure, yield after HPLC is 64%.
